The source of these data is US20070015823A1, “Ambruticin VS compounds” (priority 2004, published 2007).

Values after ≈ are worked out from the molar mass of the structure shown.

The test system of one test is A. flavus ATCC 204304. As to the kind of experiment: Broth microdilution antifungal susceptibility, NCCLS M38-A. Type of test: cell-based, Aspergillus flavus. To be noted: minimal concentration inhibiting >95% growth; average of at least two assays (except I-l and I-x).
The subject of a further test is A. fumigatus ATCC 204305. The description is as above. The test is classed as cell-based, Aspergillus fumigatus. As to conditions: minimal concentration inhibiting >95% growth; average of at least two assays (except I-l and I-x).
A further test has as its system Cryptococcus neoformans. The description is as above. To be noted: 50% growth inhibition, range = minimum and maximum of multiple assays; for MIC C. neoformans 97-14: strain 97-14; for MIC C. neoformans 11239: strain 11239; for MIC C. neoformans 11240: strain 11240.
The subject of another test is Histoplasma capsulatum. The test is classed as cell-based.
The next test deals with Blastomyces dermatitidis. As to the kind of experiment: Broth microdilution antifungal susceptibility, NCCLS M38-A. Type of test: cell-based. Background: Dilution methods test growth across graded concentrations, often in twofold steps.

Consider `CC[C@H]1O[C@@H](/C(C)=C/[C@H](C)/C=C/[C@H]2[C@@H](C)[C@@H]2/C=C/[C@@H]2O[C@H](CC(=O)O)CC(=O)[C@H]2O)CC=C1C` [5-keto ambruticin S, (6R)-5-Oxo-6-hydroxypolyangioic acid, reference compound], for which the “MIC0 A. flavus ATCC 204304” value in the test with A. flavus ATCC 204304 amounted to 1.0 µg/mL. Moreover, the “MIC0 A. fumigatus ATCC 204305” value against A. fumigatus ATCC 204305 is 2.0 µg/mL. For the same compound, in the test on Cryptococcus neoformans, the “MIC C. neoformans 97-14” value stood at 0.5 µg/mL (≈ 1.06 µM), the “MIC C. neoformans 11239” value came out at 2 µg/mL (≈ 4.23 µM) and the “MIC C. neoformans 11240” value is 2 µg/mL (≈ 4.23 µM).

Take `CC[C@H]1O[C@@H](/C(C)=C/[C@H](C)/C=C/[C@H]2[C@@H](C)[C@@H]2/C=C/[C@@H]2O[C@H](CC(=O)O)C[C@H](N(C)CC3CC3)[C@H]2O)CC=C1C` [I-b, (5S,6R)-5-(N-cyclopropylmethyl-methylamino)-6-hydroxypolyangioic acid]: in the test on A. flavus ATCC 204304, the “MIC0 A. flavus ATCC 204304” value was found to be 1.5 µg/mL. Moreover, in the test with A. fumigatus ATCC 204305, the “MIC0 A. fumigatus ATCC 204305” value is 1.5 µg/mL. Moreover, in the test on Cryptococcus neoformans, the “MIC C. neoformans 97-14” value was determined as 2 µg/mL (≈ 3.69 µM), the “MIC C. neoformans 11239” value was determined as 2 µg/mL (≈ 3.69 µM) and the “MIC C. neoformans 11240” value is 2 µg/mL (≈ 3.69 µM).

As for `CC[C@H]1O[C@@H](/C(C)=C/[C@H](C)/C=C/[C@H]2[C@@H](C)[C@@H]2/C=C/[C@@H]2O[C@H](CC(=O)O)C[C@H](N(C)C3CCCC3)[C@H]2O)CC=C1C` [I-c, (5S,6R)-5-(N-cyclopentyl-methylamino)-6-hydroxypolyangioic acid], the “MIC0 A. flavus ATCC 204304” value with A. flavus ATCC 204304 is 2.0 µg/mL. Moreover, the “MIC0 A. fumigatus ATCC 204305” value against A. fumigatus ATCC 204305 came to 2.67 µg/mL. Besides, in the test on Cryptococcus neoformans, the “MIC C. neoformans 97-14” value was 1 µg/mL (≈ 1.8 µM), the “MIC C. neoformans 11239” value was 2 µg/mL (≈ 3.6 µM) and the “MIC C. neoformans 11240” value is 2 µg/mL (≈ 3.6 µM).

On to `CC[C@H]1O[C@@H](/C(C)=C/[C@H](C)/C=C/[C@H]2[C@@H](C)[C@@H]2/C=C/[C@@H]2O[C@H](CCO)C[C@H](NC)[C@H]2O)CC=C1C` [I-ee, (5S,6R)-5-(methylamino)polyangi-1,6-diol], for which the “MIC0 A. flavus ATCC 204304” value in the test on A. flavus ATCC 204304 came out at 3 µg/mL. Besides, in the test with A. fumigatus ATCC 204305, the “MIC0 A. fumigatus ATCC 204305” value amounted to 9.5 µg/mL. For the same compound, in the test on Cryptococcus neoformans, the “MIC C. neoformans 97-14” value was determined as 2 µg/mL (≈ 4.22 µM), the “MIC C. neoformans 11239” value came to 2 µg/mL (≈ 4.22 µM) and the “MIC C. neoformans 11240” value amounted to 2 µg/mL (≈ 4.22 µM).

Regarding `CC[C@H]1O[C@@H](/C(C)=C/[C@H](C)/C=C/[C@H]2[C@@H](C)[C@@H]2/C=C/[C@@H]2O[C@H](CC(=O)O)C[C@H](NCCO)[C@H]2O)CC=C1C` [I-ll, (5S,6R)-5-[(2-hydroxyethyl)amino]-6-hydroxypolyangioic acid], the “MIC0 A. flavus ATCC 204304” value against A. flavus ATCC 204304 was determined as 10 µg/mL. The “MIC0 A. fumigatus ATCC 204305” value with A. fumigatus ATCC 204305 was 10 µg/mL. In addition, in the test with Cryptococcus neoformans, the “MIC C. neoformans 97-14” value came out at 0.5 µg/mL (≈ 0.966 µM), the “MIC C. neoformans 11239” value was 1 µg/mL (≈ 1.93 µM) and the “MIC C. neoformans 11240” value is 0.5 µg/mL (≈ 0.966 µM).

For the compound `CC[C@H]1O[C@@H](/C(C)=C/[C@H](C)/C=C/[C@H]2[C@@H](C)[C@@H]2/C=C/[C@@H]2O[C@H](CCO)C[C@H](N(C)CCO)[C@H]2O)CC=C1C` [I-nn, (5S,6R)-5-[N-(2-hydroxyethyl)methylamino]polyangi-1,6-diol], in the test with Histoplasma capsulatum, the “MIC H. capsulatum G217B” value was less than 0.19 µg/mL and the “MIC H. capsulatum GS20” value was less than 0.19 µg/mL. For the same compound, in the test on Blastomyces dermatitidis, the “MIC B. dermatitidis Gu” value was greater than 12.5 µg/mL, the “MIC B. dermatitidis Kr” value was greater than 12.5 µg/mL and the “MIC B. dermatitidis V” value was greater than 12.5 µg/mL. The “MIC0 A. flavus ATCC 204304” value against A. flavus ATCC 204304 stood at 4 µg/mL. Besides, the “MIC0 A. fumigatus ATCC 204305” value against A. fumigatus ATCC 204305 stood at 32 µg/mL.

Consider `CC[C@H]1O[C@@H](/C(C)=C/[C@H](C)/C=C/[C@H]2[C@@H](C)[C@@H]2/C=C/[C@@H]2O[C@H](CC(=O)O)C[C@H](N(C)C(=O)NCc3ccccc3)[C@H]2O)CC=C1C` [I-p, (5S,6R)-5-(3-benzyl-1-methylureido)-6-hydroxypolyangioic acid], for which, in the test with A. flavus ATCC 204304, the “MIC0 A. flavus ATCC 204304” value worked out at 32 µg/mL. Also, in the test on A. fumigatus ATCC 204305, the “MIC0 A. fumigatus ATCC 204305” value was determined as 32 µg/mL.

As for `CC[C@H]1O[C@@H](/C(C)=C/[C@H](C)/C=C/[C@H]2[C@@H](C)[C@@H]2/C=C/[C@@H]2O[C@H](CC(=O)NCCN(C)C)C[C@H](N(C)C)[C@H]2O)CC=C1C` [I-qq, (5S,6R)-5-dimethylamino-6-hydroxy-N-[(2-dimethylamino)ethyl]polyangiamide], in the test on A. flavus ATCC 204304, the “MIC0 A. flavus ATCC 204304” value is greater than 32 µg/mL. The “MIC0 A. fumigatus ATCC 204305” value with A. fumigatus ATCC 204305 was determined as 32 µg/mL.

On to `CC[C@H]1O[C@@H](/C(C)=C/[C@H](C)/C=C/[C@H]2[C@@H](C)[C@@H]2/C=C/[C@@H]2O[C@H](CC(=O)O)C[C@H](N(C)C(=O)OCC(C)C)[C@H]2O)CC=C1C` [I-r, (5S,6R)-5-[N-methyl(isobutoxycarbonylamino)]-6-hydroxypolyangioic acid], for which the “MIC0 A. flavus ATCC 204304” value against A. flavus ATCC 204304 was greater than 32 µg/mL. Moreover, in the test on A. fumigatus ATCC 204305, the “MIC0 A. fumigatus ATCC 204305” value is greater than 32 µg/mL.

Consider `CC[C@H]1O[C@@H](/C(C)=C/[C@H](C)/C=C/[C@H]2[C@@H](C)[C@@H]2/C=C/[C@@H]2O[C@H](CC(=O)NCCO)C[C@H](N(C)C)[C@H]2O)CC=C1C` [I-rr, (5S,6R)-5-dimethylamino-6-hydroxy-N-(2-hydroxyethyl)polyangiamide], for which the “MIC0 A. flavus ATCC 204304” value against A. flavus ATCC 204304 was determined as 2 µg/mL. For the same compound, the “MIC0 A. fumigatus ATCC 204305” value against A. fumigatus ATCC 204305 was found to be 4 µg/mL.

Consider `CC[C@H]1O[C@@H](/C(C)=C/[C@H](C)/C=C/[C@H]2[C@@H](C)[C@@H]2/C=C/[C@@H]2O[C@H](CC(=O)O)C[C@H](NC(=O)NCc3ccccc3)[C@H]2O)CC=C1C` [I-s, (5S,6R)-5-(3-benzylureido)-6-hydroxypolyangioic acid], for which the “MIC0 A. flavus ATCC 204304” value against A. flavus ATCC 204304 amounted to 32 µg/mL. Besides, the “MIC0 A. fumigatus ATCC 204305” value against A. fumigatus ATCC 204305 stood at 16 µg/mL.

Take `CC[C@H]1O[C@@H](/C(C)=C/[C@H](C)/C=C/[C@H]2[C@@H](C)[C@@H]2/C=C/[C@@H]2O[C@H](CC(=O)NCC(=O)OC)C[C@H](N(C)C)[C@H]2O)CC=C1C` [I-ss, (5S,6R)-5-dimethylamino-6-hydroxy-N-(methoxycarbonylmethyl)polyangiamide]: the “MIC0 A. flavus ATCC 204304” value against A. flavus ATCC 204304 was found to be 8 µg/mL. The “MIC0 A. fumigatus ATCC 204305” value against A. fumigatus ATCC 204305 was found to be 4 µg/mL.
